# Patent publication US10722516B2, “Use of landiolol hydrochloride in the long-term treatment of tachyarrhythmias” (AOP Orphan Pharmaceuticals AG, priority 2013, dated 2020)
# Counter-ions that a name gives are not always drawn.
# Tested on: healthy volunteers
# Assay: 24 h long-term infusion study, AOP LDLL600 against esmolol: heart rate
# Format: in vivo, human
# Protocol: A single centre prospective, randomized, double blind, crossover, pharmacokinetic, safety and tolerability study to compare long-term infusion administration of AOP LDLL600 against esmolol in healthy volunteers was performed.
# Landiolol hydrochloride lyophilized (LDLL600) comprises 600 mg landiolol hydrochloride, 600 mg mannitol, pH 6.5. The primary packing of LDLL600 is 50 ml vial, the reconstitution volume is 50 ml and the final product concentration is 12 mg/mL landiolol HCl.
# 12 subjects were administered AOP LDLL600 or Esmolol (Brevibloc, 2500 mg/250 ml) in 1:1 ratio in double-blind, randomized, cross-over setting. PK, systemic cardiovascular and local tolerability and safety of the 24 h-long term infusions of three dose levels of both IMPs during each treatment period were assessed.
# Landiolol was infused over 24 h in a dose of 10 μg/KG/min (2 hrs), followed by 20 μg/KG/min (2 hrs), followed by 40 μg/KG/min for 20 hrs.
# Dosing algorithm was body weight divided by 20, 10 and 5 in ml/h giving 10, 20 and 40 μg/KG/min at a concentration of 12 mg/ml. No severe adverse drug reactions, mild local reactions, 1 severe local reaction (Esmolol High Dose).
# Landiolol was infused over 24 h in a dose of 10, 20 and 40 μg/KG/min, i.e. 10 μg/KG/min landiolol were administered for 2 hrs, followed by 2 hrs administration of 20 μg/KG/min and further followed by 20 hrs administration of 40 μg/KG/min.
# Post-infusion follow up measurements were performed immediately after 20 hrs administration study, i.e. 2, 4 min etc. after stop of landiolol administration.
# [1] = FU Predose (end of 20 h HD, infusion stop)
# [2] = FU post-infusion, 20 h 2 min (2 min after infusion stop)
# [3] = FU post-infusion, 20 h 4 min (4 min after infusion stop)
# [4] = FU post-infusion, 20 h 6 min (6 min after infusion stop)
# [5] = FU post-infusion, 20 h 8 min (8 min after infusion stop)
# [6] = FU post-infusion, 20 h 12 min (12 min after infusion stop)
# [7] = FU post-infusion, 20 h 16 min (16 min after infusion stop)
# [8] = FU post-infusion, 20 h 20 min (20 min after infusion stop)
# [9] = FU post-infusion, 20 h 30 min (30 min after infusion stop)
# [10] = FU post-infusion, 21 h (1 h after infusion stop)
# [11] = FU post-infusion, 22 h (2 h after infusion stop)
# [12] = FU post-infusion, 24 h (4 h after infusion stop)
# [13] = FU post-infusion, 26 h (6 h after infusion stop)
# [14] = HD infusion (landiolol 40, esmolol 200 μg/kg/min, after LD and MD), 2 min
# [15] = HD infusion (landiolol 40, esmolol 200 μg/kg/min, after LD and MD), 3 min
# [16] = HD infusion (landiolol 40, esmolol 200 μg/kg/min, after LD and MD), 4 min
# [17] = HD infusion (landiolol 40, esmolol 200 μg/kg/min, after LD and MD), 6 min
# [18] = HD infusion (landiolol 40, esmolol 200 μg/kg/min, after LD and MD), 8 min
# [19] = HD infusion (landiolol 40, esmolol 200 μg/kg/min, after LD and MD), 12 min
# [20] = HD infusion (landiolol 40, esmolol 200 μg/kg/min, after LD and MD), 16 min
# [21] = HD infusion (landiolol 40, esmolol 200 μg/kg/min, after LD and MD), 20 min
# [22] = HD infusion (landiolol 40, esmolol 200 μg/kg/min, after LD and MD), 30 min
# [23] = HD infusion (landiolol 40, esmolol 200 μg/kg/min, after LD and MD), 60 min
# [24] = HD infusion (landiolol 40, esmolol 200 μg/kg/min, after LD and MD), 90 min
# [25] = HD infusion (landiolol 40, esmolol 200 μg/kg/min, after LD and MD), 2 h
# [26] = HD infusion (landiolol 40, esmolol 200 μg/kg/min, after LD and MD), 4 h
# [27] = HD infusion (landiolol 40, esmolol 200 μg/kg/min, after LD and MD), 8 h
# [28] = HD infusion (landiolol 40, esmolol 200 μg/kg/min, after LD and MD), 12 h
# [29] = HD infusion (landiolol 40, esmolol 200 μg/kg/min, after LD and MD), 16 h
# [30] = HD infusion (landiolol 40, esmolol 200 μg/kg/min, after LD and MD), 20 h (end)
# [31] = LD infusion (landiolol 10, esmolol 50 μg/kg/min), 2 min
# [32] = LD infusion (landiolol 10, esmolol 50 μg/kg/min), 3 min
# [33] = LD infusion (landiolol 10, esmolol 50 μg/kg/min), 4 min
smiles,measurement,setting,value
"COC(=O)CCc1ccc(OCC(O)CNC(C)C)cc1 (centres unmarked) [Esmolol, Esmolol hydrochloride]","change of heart rate from predose, Mean (SD)",[1],1.5 (9.05) beats per minute
same,"heart rate, Mean (SD)",[1],69.1 (6.40) beats per minute
same,"change of heart rate from predose, Mean (SD)",[2],1.4 (7.57) beats per minute
same,"heart rate, Mean (SD)",[2],69.0 (4.88) beats per minute
same,"change of heart rate from predose, Mean (SD)",[3],3.6 (8.77) beats per minute
same,"heart rate, Mean (SD)",[3],71.3 (7.04) beats per minute
same,"change of heart rate from predose, Mean (SD)",[4],5.4 (8.11) beats per minute
same,"heart rate, Mean (SD)",[4],73.1 (7.89) beats per minute
same,"change of heart rate from predose, Mean (SD)",[5],5.4 (8.10) beats per minute
same,"heart rate, Mean (SD)",[5],73.1 (7.57) beats per minute
same,"change of heart rate from predose, Mean (SD)",[6],7.1 (8.43) beats per minute
same,"heart rate, Mean (SD)",[6],74.7 (8.62) beats per minute
same,"change of heart rate from predose, Mean (SD)",[7],6.4 (7.44) beats per minute
same,"heart rate, Mean (SD)",[7],74.0 (7.99) beats per minute
same,"change of heart rate from predose, Mean (SD)",[8],6.8 (7.17) beats per minute
same,"heart rate, Mean (SD)",[8],74.4 (7.04) beats per minute
same,"change of heart rate from predose, Mean (SD)",[9],9.1 (8.04) beats per minute
same,"heart rate, Mean (SD)",[9],76.8 (8.51) beats per minute
same,"change of heart rate from predose, Mean (SD)",[10],5.5 (8.15) beats per minute
same,"heart rate, Mean (SD)",[10],73.1 (7.50) beats per minute
same,"change of heart rate from predose, Mean (SD)",[11],2.6 (8.02) beats per minute
same,"heart rate, Mean (SD)",[11],70.2 (7.06) beats per minute
same,"change of heart rate from predose, Mean (SD)",[12],4.5 (9.51) beats per minute
same,"heart rate, Mean (SD)",[12],72.1 (7.37) beats per minute
same,"change of heart rate from predose, Mean (SD)",[13],5.1 (10.85) beats per minute
same,"heart rate, Mean (SD)",[13],72.8 (9.74) beats per minute
same,"change of heart rate from predose, Mean (SD)",HD Predose (end of 2 h MD),−3.9 (7.75) beats per minute
same,"heart rate, Mean (SD)",HD Predose (end of 2 h MD),63.7 (4.86) beats per minute
same,"change of heart rate from predose, Mean (SD)",[14],−2.5 (8.96) beats per minute
same,"heart rate, Mean (SD)",[14],65.1 (7.10) beats per minute
same,"change of heart rate from predose, Mean (SD)",[15],−3.2 (8.99) beats per minute
same,"heart rate, Mean (SD)",[15],64.4 (4.38) beats per minute
same,"change of heart rate from predose, Mean (SD)",[16],−3.1 (8.16) beats per minute
same,"heart rate, Mean (SD)",[16],64.5 (4.74) beats per minute
same,"change of heart rate from predose, Mean (SD)",[17],−2.8 (8.97) beats per minute
same,"heart rate, Mean (SD)",[17],64.9 (4.29) beats per minute
same,"change of heart rate from predose, Mean (SD)",[18],−3.7 (10.45) beats per minute
same,"heart rate, Mean (SD)",[18],63.9 (7.14) beats per minute
same,"change of heart rate from predose, Mean (SD)",[19],−2.9 (9.19) beats per minute
same,"heart rate, Mean (SD)",[19],64.8 (4.39) beats per minute
same,"change of heart rate from predose, Mean (SD)",[20],−3.3 (8.32) beats per minute
same,"heart rate, Mean (SD)",[20],64.4 (7.16) beats per minute
same,"change of heart rate from predose, Mean (SD)",[21],−0.4 (11.69) beats per minute
same,"heart rate, Mean (SD)",[21],67.3 (7.26) beats per minute
same,"change of heart rate from predose, Mean (SD)",[22],−2.3 (9.26) beats per minute
same,"heart rate, Mean (SD)",[22],65.4 (5.69) beats per minute
same,"change of heart rate from predose, Mean (SD)",[23],4.9 (9.60) beats per minute
same,"heart rate, Mean (SD)",[23],72.6 (6.64) beats per minute
same,"change of heart rate from predose, Mean (SD)",[24],5.9 (8.95) beats per minute
same,"heart rate, Mean (SD)",[24],73.6 (4.57) beats per minute
same,"change of heart rate from predose, Mean (SD)",[25],6.2 (9.32) beats per minute
same,"heart rate, Mean (SD)",[25],73.9 (4.55) beats per minute
same,"change of heart rate from predose, Mean (SD)",[26],2.8 (9.60) beats per minute
same,"heart rate, Mean (SD)",[26],70.4 (5.03) beats per minute
same,"change of heart rate from predose, Mean (SD)",[27],0.3 (10.34) beats per minute
same,"heart rate, Mean (SD)",[27],67.9 (5.95) beats per minute
same,"change of heart rate from predose, Mean (SD)",[28],0.7 (10.94) beats per minute
same,"heart rate, Mean (SD)",[28],68.4 (8.30) beats per minute
same,"change of heart rate from predose, Mean (SD)",[29],0.3 (9.27) beats per minute
same,"heart rate, Mean (SD)",[29],67.9 (7.49) beats per minute
same,"change of heart rate from predose, Mean (SD)",[30],1.5 (9.05) beats per minute
same,"heart rate, Mean (SD)",[30],69.1 (6.40) beats per minute
same,"change of heart rate from predose, Mean (SD)",[31],−0.7 (6.22) beats per minute
same,"heart rate, Mean (SD)",[31],66.9 (6.28) beats per minute
same,"change of heart rate from predose, Mean (SD)",[32],−1.9 (5.34) beats per minute
same,"heart rate, Mean (SD)",[32],65.7 (4.91) beats per minute
same,"change of heart rate from predose, Mean (SD)",[33],−2.1 (7.64) beats per minute
same,"heart rate, Mean (SD)",[33],65.6 (6.44) beats per minute
